From paper PMC12648656, “Palladium(II) Complexes with Noncovalent Interactions with DNA: Solution Speciation Controlled by Solvent Identity, pH, and Concentration” (Inorganic Chemistry, 2025)

Test: Stability under light in DMSO by UV-vis
Format: physicochemical
Conditions: first 2.5 h
Text: The stability of the stock solutions and the effect of diffuse solar irradiation were monitored in DMSO by UV–visible (UV–vis, see Methods) spectra in the 260 to 860 nm wavelength range, and the path length was 1 cm. The initial sample was divided equally into two portions for the stability studies; one portion was irradiated with diffuse light and followed over time, while the other one was stored, protected from light, and measured 1 day after dissolution.

Structure (SMILES): Clc1ccc(N=C2N[N+](=Cc3c[nH]cn3)[Pd-2]3([S]C(Nc4ccc(Cl)cc4)=N[N+]3=Cc3c[nH]cn3)[S]2)cc1 (stereo not shown) [(2), Bis(1H-imidazole-4-carboxaldehyde-4N-p-chlorophenylthiosemicarbazonato)palladium(II)]
- spectral changes when not protected from light: only minor changes
